The values below are quoted from earlier work in US11224572B1, “Stable oral liquid composition of terazosin” (Novitium Pharma LLC, priority 2020, dated 2022).

Structures can show the parent of a compound that is named as a salt.

The conditions of data set [1]: patients treated with terazosin.
In data set [2] the test system is alpha-1 adrenoceptor.
In data set [3] the test system is alpha-1 adrenoceptor. To be noted: in animals.

For `COc1cc2nc(N3CCN(C(=O)C4CCCO4)CC3)nc(N)c2cc1OC` (racemic) [terazosin, (RS)-Piperazine, 1-(4-amino-6,7-dimethoxy-2-quinazolinyl)-4-[(tetrahydro-2-furanyl)carbonyl]-, monohydrochloride], in data set [1], the “patients experiencing an increase in urinary flow and improvement in symptoms of BPH” value was “approximately 70%”. Also, the “time within which blood pressure decreases following oral administration” value in the data set with alpha-1 adrenoceptor [2] was not above 15 min. For the same compound, the “effect on blood pressure” value in the data set on alpha-1 adrenoceptor [3] is “causes a decrease in blood pressure by decreasing total peripheral vascular resistance”.
